Measurements taken from PubChem BioAssay (NCI).
Several values for one entry are separate records, joined by “and”; a condition that tells them apart may be missing. Equal entries are not always repeated.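 48-hour exposure; five concentrations; linearly interpolated endpoints. Here, GI50 denotes the concentration required for 50% inhibition of growth. The concentration for full growth arrest is given as TGI.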

How the values were obtained:
Assay in all cases: DTP human tumour cell line panel, 48 h
786-0 renal = system: 786-0 renal
SF-295 CNS = system: SF-295 CNS
NCI/ADR-RES ovarian = system: NCI/ADR-RES ovarian
HCT-15 colon = system: HCT-15 colon
SNB-75 CNS = system: SNB-75 CNS
ACHN renal = system: ACHN renal
CAKI-1 renal = system: CAKI-1 renal
NCI-H460 lung = system: NCI-H460 lung
DU-145 prostate = system: DU-145 prostate
T-47D breast = system: T-47D breast

SMILES: CSC1=C(C#N)C(=O)N(c2ccc(C)cc2)C(=S)C1C#N (stereo unspecified)
- TGI (786-0 renal): > 100 µM
- TGI (SF-295 CNS): > 100 µM
- TGI (NCI/ADR-RES ovarian): > 100 µM
- TGI (HCT-15 colon): > 100 µM
- TGI (SNB-75 CNS): > 100 µM
- TGI (ACHN renal): > 100 µM
- TGI (CAKI-1 renal): > 100 µM
- TGI (NCI-H460 lung): > 100 µM

SMILES: CC(=O)OC(OC(C)=O)n1cc(C=O)c2ccccc21
- TGI (SF-295 CNS): > 100 µM
- TGI (NCI/ADR-RES ovarian): > 100 µM
- TGI (HCT-15 colon): > 100 µM
- TGI (DU-145 prostate): > 100 µM
- TGI (ACHN renal): > 100 µM
- TGI (CAKI-1 renal): > 100 µM
- TGI (T-47D breast): > 100 µM
- TGI (NCI-H460 lung): > 100 µM

SMILES: COC(=O)n1c(=O)n(-c2ccccc2)c(=O)n1C(=O)OC
- TGI (786-0 renal): > 100 µM
- TGI (NCI/ADR-RES ovarian): > 100 µM
- TGI (HCT-15 colon): > 100 µM
- TGI (SNB-75 CNS): > 100 µM
- TGI (DU-145 prostate): > 100 µM
- TGI (CAKI-1 renal): > 100 µM
- TGI (T-47D breast): > 100 µM
- TGI (NCI-H460 lung): > 100 µM

SMILES: NCCNc1cccc2ccccc12
- TGI (786-0 renal): > 100 µM
- TGI (SF-295 CNS): > 100 µM
- TGI (HCT-15 colon): > 100 µM
- TGI (ACHN renal): > 100 µM
- TGI (CAKI-1 renal): > 100 µM
- TGI (NCI-H460 lung): > 100 µM

SMILES: CSc1c(C#N)c(=O)[nH]c2n[nH]c(C)c12
- TGI (786-0 renal): > 100 µM
- TGI (NCI/ADR-RES ovarian): > 100 µM
- TGI (HCT-15 colon): > 100 µM
- TGI (SNB-75 CNS): > 100 µM
- TGI (DU-145 prostate): > 100 µM
- TGI (CAKI-1 renal): > 100 µM
- TGI (T-47D breast): > 100 µM
- TGI (NCI-H460 lung): > 100 µM

SMILES: c1ccc2c(c1)nc(NC1CCCC1)c1[nH]c(C3CCCC3)nc12
- TGI (786-0 renal): 20.7 µM
- TGI (SF-295 CNS): 32.8 µM
- TGI (HCT-15 colon): 28.3 µM
- TGI (SNB-75 CNS): > 100 µM
- TGI (ACHN renal): > 75.6 µM
- TGI (NCI-H460 lung): 27.1 µM

SMILES: O=C1C(Br)=CC2(C=C1Br)CCNC1=C2C(=O)c2cccnc2C1=O
- TGI (786-0 renal): 29.3 µM
- TGI (SF-295 CNS): 21 µM
- TGI (NCI/ADR-RES ovarian): 49.1 µM
- TGI (HCT-15 colon): 22.6 µM
- TGI (SNB-75 CNS): 27.1 µM
- TGI (DU-145 prostate): 23.5 µM
- TGI (ACHN renal): 48.9 µM
- TGI (CAKI-1 renal): 32.3 µM
- TGI (NCI-H460 lung): 19.8 µM

SMILES: OC1(c2cc3ccccc3s2)CCCCC1
- TGI (786-0 renal): > 100 µM
- TGI (SF-295 CNS): > 100 µM
- TGI (NCI/ADR-RES ovarian): > 100 µM
- TGI (HCT-15 colon): > 100 µM
- TGI (SNB-75 CNS): > 100 µM
- TGI (DU-145 prostate): > 100 µM
- TGI (ACHN renal): > 100 µM
- TGI (CAKI-1 renal): > 100 µM
- TGI (NCI-H460 lung): > 100 µM

SMILES: COC(=O)/C=C/c1cc(O)c2c(c1)[C@H](C(=O)OC)[C@@H](c1ccc(O)c(O)c1)O2
- TGI (786-0 renal): > 100 µM
- TGI (SF-295 CNS): > 93.2 µM
- TGI (HCT-15 colon): > 100 µM
- TGI (SNB-75 CNS): 0.0711 µM
- TGI (ACHN renal): > 85.2 µM
- TGI (CAKI-1 renal): > 100 µM
- TGI (NCI-H460 lung): 24.5 µM

SMILES: NC(=O)C#CC(N)=O
- TGI (786-0 renal): > 58 µM
- TGI (SF-295 CNS): 26.2 µM and > 31.6 µM
- GI50 (NCI/ADR-RES ovarian): 8.22 µM
- TGI (NCI/ADR-RES ovarian): 25.9 µM and 18 µM
- GI50 (HCT-15 colon): 20 µM and 26.2 µM and > 100 µM
- TGI (HCT-15 colon): 76.2 µM and 100 µM and > 100 µM
- TGI (SNB-75 CNS): 79.8 µM and > 100 µM
- TGI (ACHN renal): > 100 µM
- GI50 (CAKI-1 renal): 2.81 µM and 12.5 µM and 18.2 µM
- TGI (CAKI-1 renal): 10.3 µM and 24.2 µM and 33.8 µM
- GI50 (NCI-H460 lung): 38.3 µM and 32.8 µM and > 100 µM
- TGI (NCI-H460 lung): 146 µM and 126 µM and > 100 µM

SMILES: Cc1cccc(NC(=O)C(=O)C(C(=O)c2ccccc2F)C2OC(=O)c3ccccc32)c1Cl (stereo unspecified)
- TGI (SF-295 CNS): > 100 µM
- TGI (HCT-15 colon): 73.3 µM
- TGI (SNB-75 CNS): 64.2 µM
- TGI (ACHN renal): > 100 µM
- TGI (CAKI-1 renal): > 100 µM
- TGI (NCI-H460 lung): > 100 µM

SMILES: CN(NC(=O)CCCl)C1=NCCCCN1
- TGI (786-0 renal): > 100 µM
- TGI (SF-295 CNS): > 100 µM
- TGI (NCI/ADR-RES ovarian): > 100 µM
- TGI (HCT-15 colon): > 100 µM
- TGI (SNB-75 CNS): > 100 µM
- TGI (DU-145 prostate): > 100 µM
- TGI (ACHN renal): > 100 µM
- TGI (T-47D breast): > 100 µM
- TGI (NCI-H460 lung): > 100 µM
